Reference: EPA's ToxValDB 9.5 (doi:10.2903/j.efsa.2010.1523)
Values after ≈ are worked out from the molar mass of the structure shown.

Legend:
[1] = tested on: Aphidius rhopalosiphi; assay: LR50; higher = less toxic; conditions: not reported; mortality
[2] = tested on: Canidae; conditions: chronic; duration: 1 years; oral; Dog Other; hematological
[3] = tested on: Colinus virginianus; conditions: acute, oral, mortality
[4] = tested on: Coturnix japonica; conditions: reproduction developmental
[5] = tested on: Rattus norvegicus; conditions: acute; oral; mortality
[6] = tested on: Tagia sp.; conditions: acute; duration: 14 days; mortality
[7] = tested on: Oncorhynchus mykiss
[8] = tested on: Apis mellifera; conditions: acute; duration: 48 hours; dermal; mortality
[9] = tested on: Oryctolagus sp.
[10] = tested on: Mus musculus; conditions: acute; oral; mortality
[11] = tested on: Daphnia magna; conditions: chronic/long-term; duration: 21 days; reproduction

Question: What does the source list for Cc1cnc2c(C(=O)O)c(Cl)ccc2c1 [Quinmerac]?
Answer: LR50 [1]: > 500 g/ha; NOAEL [2]: 7.9 mg/kg-day; LC50 ([3]; diet): > 933 mg/kg-day; LD50 [3]: > 2000 mg/kg-day; NOEC [4]: 173 mg/kg-day; LD50 [5]: > 5000 mg/kg-day; LC50 [6]: > 1000 mg/kg; LC50 ([7]; acute, duration: 96 hours, mortality): 86.8 µg/mL (≈ 392 µM); NOEC ([7]; chronic/long-term, duration: 28 days, growth): 3.16 mg/L; LD50 [8]: > 100 µg/piece; NOEL ([9]; chronic): 100 mg/kg-day; NOAEL ([9]; developmental, development): 30 mg/kg-day; LD50 [10]: > 5000 mg/kg-day; NOEC [11]: 100 mg/L
